Data reported in US10618903B2, “Heteroaryl substituted aminopyridine compounds” (BRISTOL-MYERS SQUIBB COMPANY, priority 2015, dated 2020).

Assays:
IRAK4 = IRAK4 (Homo sapiens (Human), UniProt Q9NWZ3); experiment: IRAK4 Inhibition Assay; assay type: biochemical; settings: ATP 500 μM; IRAK4 0.6 nM
Procedure, shortened: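 Readout: electrophoretic (LabChip) separation of fluorescent peptide substrate from phosphorylated product after EDTA quench. Reactions ran 60 min at room temperature with 0.6 nM IRAK4, 1.5 μM peptide and 500 μM ATP; inhibition referenced to no-enzyme (100%) and vehicle (0%) controls.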

Caco Permeability Assay = assay type: in vitro ADME; settings: human, Caco-2, Caco-2 cells, 3 μM compound
Method: Thirteen to 27 days prior to assay, Caco-2 cells were seeded onto collagen-coated polycarbonate filter membranes in 24-well transwell plates at a density of 1.45×10^5 cells/cm^2, approximately 4.8×10^4 cells per well. The cells were grown in a culture medium consisting of DMEM supplemented with 10% fetal bovine serum, 10 mM HEPES, 1% nonessential amino acids, 2 mM L-glutamine, 100 U/mL penicillin-G, and 100 μg/mL streptomycin. The culture medium was replaced every 3 days and the cells were maintained at 37° C. in a 95% relative humidity and 5% CO2 atmosphere. The cells were evaluated for tight junction formation just prior to assay. The test compound was solubilized to 10 mM in 100% DMSO and diluted to 3 μM in assay buffer. Permeability studies were initiated by adding 200 μL assay buffer plus/minus compound to the apical transwell compartment and 600 μL assay buffer plus/minus compound to the basolateral compartment of the 24-well transwell low-binding cluster plate. For apical-to-basolateral (A to B) permeability (absorptive direction), buffer containing compound was placed in the apical compartment (donor wells), while buffer alone was placed in the corresponding basolateral compartments (receiver wells). For basolateral-to-apical (B to A) permeability (secretive direction), buffer containing compound was placed in the basolateral compartment (donor wells), while buffer alone was placed in the corresponding apical compartments (receiver wells). Transwells were then incubated for 2 hours at 37° C. in a 95% relative humidity and 5% CO2 atmosphere with gentle agitation. Following incubation, 100 μL was removed from each apical and basolateral compartment and transferred to 96-well low binding plates that had been previously loaded with 100 µL/well of acetonitrile containing 250 nM propranolol, 250 nM diclofenac, and 500 nM tolbutamide as internal standards. The samples were subsequently analyzed by LC-MS/MS to determine concentrations of compound.

[1] = system: IL-6 levels in human whole blood stimulated with a TLR2 agonist; experiment: IRAK4 Whole Blood Assay (lipoteichoic acid/TLR2-stimulated IL-6); assay type: cell-based; settings: lipoteichoic acid 10 μg/mL, IL-6 readout
Procedure, shortened: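 IL-6 was quantified by cytometric bead assay in supernatants of human blood (ACD-A) stimulated for 5 h with lipoteichoic acid at 10 μg/mL final. Compound exposure preceded stimulation for 60 min at 37 °C, 5% CO2.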

Sequence of IRAK4 (Q9NWZ3 whole entry): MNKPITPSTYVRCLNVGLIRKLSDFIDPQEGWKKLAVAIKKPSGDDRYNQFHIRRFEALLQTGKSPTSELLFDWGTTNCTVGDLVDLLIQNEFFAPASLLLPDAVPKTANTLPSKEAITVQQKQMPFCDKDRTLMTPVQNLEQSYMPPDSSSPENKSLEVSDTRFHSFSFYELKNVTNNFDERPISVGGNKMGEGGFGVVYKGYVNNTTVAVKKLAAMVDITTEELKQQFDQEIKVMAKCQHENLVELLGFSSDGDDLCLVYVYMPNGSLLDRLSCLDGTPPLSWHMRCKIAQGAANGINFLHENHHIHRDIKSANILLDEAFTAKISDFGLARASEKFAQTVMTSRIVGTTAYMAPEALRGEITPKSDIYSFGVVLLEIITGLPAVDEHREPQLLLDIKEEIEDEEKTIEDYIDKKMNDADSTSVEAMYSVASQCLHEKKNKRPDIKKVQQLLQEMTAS

SMILES | IC50 (IRAK4) | Papp at 2 h, 3 µM (Caco Permeability Assay) | EC50 ([1]; Homo sapiens) | EC50 [1]
CC(C)OC1CC(Nc2cc(-c3cnn4cc(Cl)cnc34)ncc2C(=O)NC[C@@H](F)C(C)(C)O)CC1(F)F (single isomer, unassigned) [Example 15] | 4 nM | 6.5 ×10⁻⁶ cm/s | 660 nM | –
CC(C)(O)[C@H](F)CNC(=O)c1cnc(-c2cnn3cc(Cl)cnc23)cc1NC1COCC1(F)F (single isomer, unassigned) [Example 19] | 3 nM | 4.9 ×10⁻⁶ cm/s | – | 620 nM
CC(C)Nc1cc(-c2cnn3cc(Cl)cnc23)ncc1C(=O)NC[C@@H](F)C(C)(C)O [Example 1, (R)-6-(6-chloropyrazolo[1,5-a]pyrimidin-3-yl)-N-(2-fluoro-3-hydroxy-3-methylbutyl)-4-(isopropylamino)nicotinamide] | 3 nM | 24.8 ×10⁻⁶ cm/s | 400 nM | –
CC(C)(O)c1cnc(Nc2cc(-c3cnn4cc(Cl)cnc34)ncc2C(=O)NC[C@@H](F)C(C)(C)O)s1 [Example 2, (R)-6-(6-chloropyrazolo[1,5-a]pyrimidin-3-yl)-N-(2-fluoro-3-hydroxy-3-methylbutyl)-4-((5-(2-hydroxypropan-2-yl)thiazol-2-yl)amino)nicotinamide] | 8 nM | < 1.5 ×10⁻⁶ cm/s | 880 nM | –
CC(C)(O)[C@H](F)CNC(=O)c1cnc(-c2cnn3cc(Cl)cnc23)cc1NC1COC1 [Example 5, (R)-6-(6-chloropyrazolo[1,5-a]pyrimidin-3-yl)-N-(2-fluoro-3-hydroxy-3-methylbutyl)-4-(oxetan-3-ylamino)nicotinamide] | 3 nM | 17.5 ×10⁻⁶ cm/s | 100 nM | –
CC(C)(O)[C@H](F)CNC(=O)c1cnc(-c2cnn3cc(Cl)cnc23)cc1NC1CC1 [Example 22, (R)-6-(6-chloropyrazolo[1,5-a]pyrimidin-3-yl)-4-(cyclopropylamino)-N-(2-fluoro-3-hydroxy-3-methylbutyl)nicotinamide] | 2 nM | 16.2 ×10⁻⁶ cm/s | 11100 nM | –
CC(=O)N[C@H]1CC[C@H](NC(=O)c2cnc(-c3cnn4cc(Cl)cnc34)cc2NC(C)C)CC1 [Example 23, N-((1r,4r)-4-acetamidocyclohexyl)-6-(6-chloropyrazolo[1,5-a]pyrimidin-3-yl)-4-(isopropylamino) nicotinamide] | 10 nM | 1.8 ×10⁻⁶ cm/s | 720 nM | –
CC(C)(O)[C@H](F)CNC(=O)c1cnc(-c2cnn3cc(Cl)cnc23)cc1NC1CCOCC1 [Example 30, (R)-6-(6-chloropyrazolo[1,5-a]pyrimidin-3-yl)-N-(2-fluoro-3-hydroxy-3-methylbutyl)-4-((tetrahydro-2H-pyran-4-yl)amino)nicotinamide] | 4 nM | 14.2 ×10⁻⁶ cm/s | 380 nM | –
C[C@@H](CO)Nc1cc(-c2cnn3cc(Cl)cnc23)ncc1C(=O)NC[C@@H](F)C(C)(C)O [Example 31, 6-(6-chloropyrazolo[1,5-a]pyrimidin-3-yl)-N—((R)-2-fluoro-3-hydroxy-3-methylbutyl)-4-(((S)-1-hydroxypropan-2-yl)amino)nicotinamide] | 7 nM | < 1.5 ×10⁻⁶ cm/s | 140 nM | –
C[C@@H](CF)Nc1cc(-c2cnn3cc(Cl)cnc23)ncc1C(=O)NC[C@@H](F)C(C)(C)O [Example 32, 6-(6-chloropyrazolo[1,5-a]pyrimidin-3-yl)-N—((R)-2-fluoro-3-hydroxy-3-methylbutyl)-4-(((S)-1-fluoropropan-2-yl)amino)nicotinamide] | 4 nM | 24.1 ×10⁻⁶ cm/s | 710 nM | –
CC(C)(O)[C@H](F)CNC(=O)c1cnc(-c2cnn3cc(Cl)cnc23)cc1Nc1ccc(C(N)=O)cc1 [Example 33, (R)-4-((4-carbamoylphenyl)amino)-6-(6-chloropyrazolo[1,5-a]pyrimidin-3-yl)-N-(2-fluoro-3-hydroxy-3-methylbutyl) nicotinamide] | 2 nM | < 1.5 ×10⁻⁶ cm/s | 350 nM | –
CNC(=O)c1ccc(Nc2cc(-c3cnn4cc(Cl)cnc34)ncc2C(=O)NC[C@@H](F)C(C)(C)O)cc1 [Example 34, (R)-6-(6-chloropyrazolo[1,5-a]pyrimidin-3-yl)-N-(2-fluoro-3-hydroxy-3-methylbutyl)-4-((4-(methylcarbamoyl)phenyl)amino)nicotinamide] | 2 nM | < 1.5 ×10⁻⁶ cm/s | 360 nM | –
CC(C)Nc1cc(-c2cnn3cc(Cl)cnc23)ncc1C(=O)NCC(F)C1(O)COC1 (stereo not drawn) [Example 37, 6-(6-chloropyrazolo[1,5-a]pyrimidin-3-yl)-N-(2-fluoro-2-(3-hydroxyoxetan-3-yl)ethyl)-4-(isopropylamino)nicotinamide] | 6 nM | 4.8 ×10⁻⁶ cm/s | 700 nM | –
CC(=O)N[C@H]1CC[C@H](NC(=O)c2cnc(-c3cnn4cc(C#N)cnc34)cc2NC(C)C)CC1 [Example 89, N-((1r,4r)-4-acetamidocyclohexyl)-6-(6-cyanopyrazolo[1,5-a]pyrimidin-3-yl)-4-(isopropylamino)nicotinamide] | – | < 1.5 ×10⁻⁶ cm/s | 2960 nM | –
CC(C)(F)CNc1cc(-c2cnn3cc(C#N)cnc23)ncc1C(=O)NC[C@@H](F)C(C)(C)O [Example 91, (R)-6-(6-cyanopyrazolo[1,5-a]pyrimidin-3-yl)-4-((2-fluoro-2-methylpropyl)amino)-N-(2-fluoro-3-hydroxy-3-methylbutyl)nicotinamide] | – | 5 ×10⁻⁶ cm/s | 2970 nM | –
CC(C)(O)[C@H](F)CNC(=O)c1cnc(-c2cnn3cc(C#N)cnc23)cc1NC1CCC1 [Example 96, (R)-6-(6-cyanopyrazolo[1,5-a]pyrimidin-3-yl)-4-(cyclobutylamino)-N-(2-fluoro-3-hydroxy-3-methylbutyl)nicotinamide] | – | 8.3 ×10⁻⁶ cm/s | 270 nM | –
CC(C)(O)[C@H](F)CNC(=O)c1cnc(-c2cnn3cc(C#N)cnc23)cc1NC1CCC(F)(F)C1O (stereo partly drawn) [Example 107, 6-(6-cyanopyrazolo[1,5-a]pyrimidin-3-yl)-4-((3,3-difluoro-2-hydroxycyclopentyl)amino)-N—((R)-2-fluoro-3-hydroxy-3-methylbutyl)nicotinamide] | – | < 1.5 ×10⁻⁶ cm/s | 430 nM | –
CC(C)(O)[C@H](F)CNC(=O)c1cnc(-c2cnc3cc(C#N)cnn23)cc1Nc1cnn(CC(F)(F)F)c1 [Example 276, (R)-6-(7-cyanoimidazo[1,2-b]pyridazin-3-yl)-N-(2-fluoro-3-hydroxy-3-methylbutyl)-4-((1-(2,2,2-trifluoroethyl)-1H-pyrazol-4-yl)amino)nicotinamide] | 2 nM | – | 80 nM | –
CC(C)(F)Cn1cc(Nc2cc(-c3cnc4cc(C#N)cnn34)ncc2C(=O)NC[C@@H](F)C(C)(C)F)cn1 [Example 282, (R)-6-(7-cyanoimidazo[1,2-b]pyridazin-3-yl)-N-(2,3-difluoro-3-methylbutyl)-4-((1-(2-fluoro-2-methylpropyl)-1H-pyrazol-4-yl)amino)nicotinamide] | 2 nM | – | 710 nM | –
CC(C)(O)[C@H](F)CNC(=O)c1cnc(-c2cnc3cc(Cl)cnn23)cc1Nc1cnn(CCCF)c1 [Example 283, (R)-6-(7-chloroimidazo[1,2-b]pyridazin-3-yl)-N-(2-fluoro-3-hydroxy-3-methylbutyl)-4-((1-(3-fluoropropyl)-1H-pyrazol-4-yl)amino)nicotinamide] | 2 nM | – | 340 nM | –
CC(C)(O)[C@H](F)CNC(=O)c1cnc(-c2cnc3cc(Cl)cnn23)cc1Nc1cnn(C2CCC2)c1 [Example 285, (R)-6-(7-chloroimidazo[1,2-b]pyridazin-3-yl)-4-((1-cyclobutyl-1H-pyrazol-4-yl)amino)-N-(2-fluoro-3-hydroxy-3-methylbutyl)nicotinamide] | 3 nM | – | 370 nM | –
CC(C)(O)[C@H](F)CNC(=O)c1cnc(-c2cnc3cc(C#N)cnn23)cc1N[C@@H]1CCN(c2ncc(F)cn2)C1 [Example 288, 6-(7-cyanoimidazo[1,2-b]pyridazin-3-yl)-N—((R)-2-fluoro-3-hydroxy-3-methylbutyl)-4-(((R)-1-(5-fluoropyrimidin-2-yl)pyrrolidin-3-yl)amino)nicotinamide] | 9 nM | – | 390 nM | –
